Experiments:
[1] = Inhibition of human GSK3 using biotin-CREB peptide substrate after 1 hr by scintillation counting method
[2] = Inhibition of GSK3 expressed in CHO-IR cells expressing human insulin receptor assessed as glycogen synthase activation after 30 mins by filter paper assay; format: cell-based, Cavia porcellus
[3] = Stability in dog liver microsomes assessed as half life; format: ADME, Canis lupus familiaris, microsome
[4] = Stability in rat liver microsomes assessed as half life; format: ADME, microsome

SMILES	IC50 [1] [nM]	EC50 [2] [nM]	half-life [3] [min]	half-life [4] [min]
Nc1nc(NCCNc2ncc(-c3ncc[nH]3)c(-c3cc(F)ccc3Cl)n2)ccc1[N+](=O)[O-]	32		> 30	> 30
N#Cc1ccc(-c2nc(NCCNc3ccc([N+](=O)[O-])cn3)ncc2C(=O)NCCO)cc1	29	> 10000		
Nc1nc(NCCNc2ncc(-c3ncc[nH]3)c(-c3ccc(Br)cc3F)n2)ccc1[N+](=O)[O-]	5	500	> 30	> 30
Cc1nc(-c2cnc(NCCNc3ccc([N+](=O)[O-])c(N)n3)nc2-c2ccc(Cl)cc2Cl)n(C)c1C	22	320		
Nc1nc(NCCNc2ncc(NC(=O)CCCN3CCOCC3)c(-c3ccc(Cl)cc3Cl)n2)ccc1[N+](=O)[O-]	24	17700		
Nc1nc(NCCNc2ncc(-c3nc(C(F)(F)F)c[nH]3)c(-c3ccc(Cl)cc3Cl)n2)ccc1[N+](=O)[O-]	34	170		
CCOC(=O)c1c(CC)nc(NCCNc2ccc([N+](=O)[O-])cn2)nc1-c1ccc(C(N)=O)cc1	120	9600		
Clc1ccc(-c2nc(NCCNc3ccccn3)ncc2-c2ncc[nH]2)c(Cl)c1	2860		> 30	> 30
Nc1nc(NCCNc2ncc(N3CCNCC3=O)c(-c3ccc(Cl)cc3Cl)n2)ccc1[N+](=O)[O-]	15	5410		
CC(C)(C)NC(=O)c1cnc(NCCNc2ccc([N+](=O)[O-])cn2)nc1-c1ccc(C#N)cc1	110	> 10000		
CNC(=O)Nc1cnc(NCCNc2ccc([N+](=O)[O-])c(N)n2)nc1-c1ccc(Cl)cc1Cl	27	3000		
Nc1nc(NCCNc2ncc(N3CCNCC3)c(-c3ccc(Cl)cc3Cl)n2)ccc1[N+](=O)[O-]	18	510		
CN(C)C(=O)c1cnc(NCCNc2ccc([N+](=O)[O-])cn2)nc1-c1ccc(C#N)cc1	61	8700		
CNC(=O)c1cnc(NCCNc2ccc([N+](=O)[O-])cn2)nc1-c1ccc(C#N)cc1	33	> 10000		
CN(C)CC(=O)Nc1cnc(NCCNc2ccc([N+](=O)[O-])c(N)n2)nc1-c1ccc(Cl)cc1Cl	25	670		
CC(C)[C@H](N)C(=O)Nc1cnc(NCCNc2ccc([N+](=O)[O-])c(N)n2)nc1-c1ccc(Cl)cc1Cl	14	860		
CN(C)CCN(C)C(=O)c1cnc(NCCNc2ccc([N+](=O)[O-])cn2)nc1-c1ccc(C#N)cc1	140	> 10000		
N#Cc1ccc(-c2nc(NCCNc3ccc([N+](=O)[O-])cn3)ncc2C(=O)N2CCNCC2)cc1	417	> 10000		

SMILES	IC50 [1] [nM]	EC50 [2] [nM]	half-life [3] [min]	half-life [4] [min]
CC(C)(C)c1c[nH]c(-c2cnc(NCCNc3ccc([N+](=O)[O-])c(N)n3)nc2-c2ccc(Cl)cc2Cl)n1	27	1070		
CN(C)CCOC(=O)c1cnc(NCCNc2ccc([N+](=O)[O-])cn2)nc1-c1ccc(C#N)cc1	50	3400		
CCOC(=O)c1cnc(NCCNc2ccc([N+](=O)[O-])cn2)nc1-c1ccc(C#N)cc1	52	2200		
COc1cc(Cl)ccc1-c1nc(NCCNc2ccc([N+](=O)[O-])c(N)n2)ncc1-c1ncc[nH]1	249		> 30	> 30
Cc1nc(-c2cnc(NCCNc3ccc([N+](=O)[O-])c(N)n3)nc2-c2ccc(Cl)cc2Cl)[nH]c1C	3	440		
N#Cc1ccc(-c2nc(NCCNc3ccc([N+](=O)[O-])cn3)ncc2C(=O)OCCO)cc1	51	8300		
Nc1nc(NCCNc2ncc(CN3CCOCC3)c(-c3ccc(Cl)cc3Cl)n2)ccc1[N+](=O)[O-]	17	840		
CS(=O)(=O)Nc1cnc(NCCNc2ccc([N+](=O)[O-])c(N)n2)nc1-c1ccc(Cl)cc1Cl	9	390		
Nc1nc(NCCNc2ncc(-n3cccc(C(F)(F)F)c3=O)c(-c3ccc(Cl)cc3Cl)n2)ccc1[N+](=O)[O-]	4	40		
CC(=O)Nc1cnc(NCCNc2ccc([N+](=O)[O-])c(N)n2)nc1-c1ccc(Cl)cc1Cl	6	190		
CCOC(=O)c1c(CC)nc(NCCNc2ccc([N+](=O)[O-])cn2)nc1-c1ccc(C#N)cc1	40	1700		
Nc1nc(NCCNc2ncc(N3CCCC3=O)c(-c3ccc(Cl)cc3Cl)n2)ccc1[N+](=O)[O-]	6	1580		
CC(C)c1c[nH]c(-c2cnc(NCCNc3ccc([N+](=O)[O-])c(N)n3)nc2-c2ccc(Cl)cc2Cl)n1	21	90		
Cc1noc(-c2cnc(NCCNc3ccc([N+](=O)[O-])cn3)nc2-c2ccc(C#N)cc2)n1	33	1500		
CCOC(=O)c1c(-c2ccc(C(N)=O)cc2)nc(NCCNc2ccc([N+](=O)[O-])cn2)nc1-c1ccc([N+](=O)[O-])cc1	150	18000		
CN(C)CCNC(=O)c1cnc(NCCNc2ccc([N+](=O)[O-])cn2)nc1-c1ccc(C#N)cc1	71	> 10000		
Nc1nc(NCCNc2ncc(NC(=O)NCCN3CCOCC3)c(-c3ccc(Cl)cc3Cl)n2)ccc1[N+](=O)[O-]	16	3000		

More lines, now with the values ahead:

IC50 [1] [nM]	EC50 [2] [nM]	half-life [3] [min]	half-life [4] [min]	SMILES
32	110			O=[N+]([O-])c1ccc(NCCN(CCN2CCCCCC2)c2ncc(-n3ccnc3)c(-c3ccc(Cl)cc3Cl)n2)nc1
27	1500			COc1ccc(-c2nc(NCCNc3ccc([N+](=O)[O-])cn3)ncc2-n2ccnc2)c(OC)c1
34	300			Cc1ccc(-c2nc(NCCNc3ccc([N+](=O)[O-])cn3)ncc2-n2ccnc2)cc1
35	> 10000			N#Cc1ccc(-c2nc(NCCNc3ccc([N+](=O)[O-])cn3)ncc2C(=O)O)cc1
29	6100			O=[N+]([O-])c1ccc(NCCNc2ncc(-n3ccnc3)c(-c3ccc(N4CCOCC4)cc3)n2)nc1
29	> 10000			N#Cc1ccc(-c2nc(NCCNc3ccc([N+](=O)[O-])cn3)ncc2C(N)=O)cc1
7	10			Nc1nc(NCCNc2ncc(-c3ccccn3)c(-c3ccc(Cl)cc3Cl)n2)ccc1[N+](=O)[O-]
1	130			Nc1nc(NCCNc2ncc(-c3nc(-c4ccccc4)c[nH]3)c(-c3ccc(Cl)cc3Cl)n2)ccc1[N+](=O)[O-]
108	> 10000			Cc1cc(NCCNc2ncc(-n3ccnc3)c(-c3ccc(Cl)cc3Cl)n2)n2ncnc2n1
38	4200			Cc1ccc(-c2nc(NCCNc3ccc([N+](=O)[O-])cn3)ncc2-n2ccnc2)c(C)c1
68	2100			COc1ccc(-c2nc(NCCNc3ccc([N+](=O)[O-])cn3)ncc2-n2ccnc2)cc1
24	1240			O=[N+]([O-])c1ccc(NCCNc2ncc(-n3ccnc3)c(-c3ccccc3Cl)n2)nc1
40	2500			O=[N+]([O-])c1ccc(NCCNc2ncc(-n3ccnc3)c(-c3ccc(C(F)(F)F)cc3)n2)nc1
223	3840			FC(F)(F)c1ccc(NCCNc2ncc(-n3ccnc3)c(-c3ccc(Cl)cc3Cl)n2)nc1
26	370			O=[N+]([O-])c1ccc(NCCN(CCN2CCCC2)c2ncc(-n3ccnc3)c(-c3ccc(Cl)cc3Cl)n2)nc1
19	1000			N#Cc1ccc(-c2nc(NCCNc3ccc([N+](=O)[O-])cn3)ncc2-n2cncn2)cc1
56	1010			N#Cc1ccc(NCCNc2ncc(-n3ccnc3)c(-c3ccc(Cl)cc3Cl)n2)nc1N

IC50 [1] [nM]	EC50 [2] [nM]	half-life [3] [min]	half-life [4] [min]	SMILES
15	280			O=[N+]([O-])c1ccc(NCCN(CCN2CCOCC2)c2ncc(-n3ccnc3)c(-c3ccc(Cl)cc3Cl)n2)nc1
22	80			CN(CCNc1ccc([N+](=O)[O-])cn1)c1ncc(-n2ccnc2)c(-c2ccc(Cl)cc2Cl)n1
9	100			CCc1ccc(-c2nc(NCCNc3ccc([N+](=O)[O-])cn3)ncc2-n2ccnc2)cc1
31	900			O=[N+]([O-])c1ccc(NCCNc2ncc(-n3ccnc3)c(-c3ccc(F)cc3F)n2)nc1
15	280			O=[N+]([O-])c1ccc(NCCNc2ncc(-n3cnnn3)c(-c3ccc(Cl)cc3Cl)n2)nc1
527	12700			Clc1ccc(-c2nc(NCCNc3nc4ccc(Cl)cc4s3)ncc2-n2ccnc2)c(Cl)c1
1	250			Cn1ccnc1-c1cnc(NCCNc2ccc([N+](=O)[O-])c(N)n2)nc1-c1ccc(Cl)cc1Cl
27	110			CN1CCCC1CCN(CCNc1ccc([N+](=O)[O-])cn1)c1ncc(-n2ccnc2)c(-c2ccc(Cl)cc2Cl)n1 (configuration not stated)
35	350			CN(C)CCN(CCNc1ccc([N+](=O)[O-])cn1)c1ncc(-n2ccnc2)c(-c2ccc(Cl)cc2Cl)n1
6	300			O=[N+]([O-])c1ccc(NCCNc2ncc(-n3ccnc3)c(-c3ccc(Cl)cc3Cl)n2)nc1
236	9440			N#Cc1cnc(NCCNc2ncc(-n3ccnc3)c(-c3ccc(Cl)cc3Cl)n2)nc1N
53	1200			O=[N+]([O-])c1ccc(NCCNc2ncc(-n3ccnc3)c(-c3ccc(Cl)cc3)n2)nc1
31	10000			O=[N+]([O-])c1ccc(NCCNc2ncc(-c3nnn[nH]3)c(-c3ccc(Cl)cc3Cl)n2)nc1
201	3900			Clc1ccc(-c2nc(NCCNc3cc(Cl)ncn3)ncc2-n2ccnc2)c(Cl)c1
24	> 10000			O=[N+]([O-])c1cnc(NCCNc2ncc(-n3ccnc3)c(-c3ccc(Cl)cc3Cl)n2)s1
777				O=[N+]([O-])c1ccc(NCCNc2ncc(-n3ccnc3)c(-c3ccc(N4CCCCC4)cc3)n2)nc1
197	23900			O=[N+]([O-])c1ccc(NCCNc2ncc(-n3ccnc3)c(-c3ccccc3)n2)nc1
